Assay results taken from patent publication US20190307141A1, “LACTIC ACID BACTERIAL FERMENTATION PROMOTING AGENT” (MEIJI CO., LTD., priority 2016, published 2019).

Columns and labels:
Assay type in all cases: cell-based
[1] = system: Streptococcus thermophilus OLS3059 strain; test: Fermentation promoting effect in UHT sterilized milk, pH of the fermentation liquid over time; details: 43° C.; for fermentation promoting effect (pH over time) of mixtures with guanosine in different mixing ratios: adenosine:guanosine 10:0, 7:3, 5:5, 3:7, inosine:guanosine 10:0, 7:3, 5:5, 4:6 (weight ratio), total 0.05 mmol/kg, UHT sterilized milk; for fermentation promoting effect (pH of the fermentation liquid over time vs control): test substance 0.05 mmol/kg in UHT sterilized milk, starter 1% (vol/wt)
Experimental: (§1) The above test substances were each added to UHT sterilized milk (cow milk sterilized by a UHT method (ultrahigh temperature sterilization method); sterilized at 130° C. for 2 seconds), and warmed to 43° C. […] To the warmed UHT sterilized milk, Streptococcus thermophilus OLS3059 strain (accession number FERM BP-10740) was inoculated as a starter in an inoculation amount of 1% (vol/wt) (corresponding to a bacterial cell concentration of 1 to 2×10^7 cfu/mL), and the fermentation was started at 43° C. As a control, the fermentation using UHT sterilized milk without the above test substances was also carried out. Herein, S. thermophilus OLS3059 strain was cultured using MRS (Difco) at 37° C. for 16 hours for preparation of the bacterial cells to be used in the fermentation below. After culturing using MRS, the bacterial cells were collected by centrifugation (8,000 g for 5 minutes), and then suspended into 0.8% sodium chloride solution. The resulting bacterial cell suspension (bacterial cell concentration of 1 to 2×10^9 cfu/mL) was used as a starter. In the following Examples using S. thermophilus, a S. thermophilus bacterial suspension prepared according to the same method as the present Example was used as a starter, unless otherwise stated.
The pH of the fermentation liquid was measured over time. A decrease in the pH in the lactic acid bacteria culture medium and the fermentation liquid indicates an increase in the amount of lactic acid production associated with the lactic acid bacterial fermentation and is used as an indicator of the progress degree of the lactic acid bacterial fermentation. […]
In this test, a 10 mM solution of each of the test substances (purines) in 0.1N NaOH was added to UHT sterilized milk in an amount such that the concentration of the test substance in the UHT sterilized milk was 0.05 mmol/kg, whereby UHT sterilized milk supplemented with the test substance was prepared. Additionally, as a control, the fermentation using UHT sterilized milk without the test substances (purines) was also carried out.
UHT sterilized milk supplemented with adenine which is a purine base, or a derivative thereof that is adenosine, deoxyadenosine, or adenylic acid (adenosine monophosphate; AMP) added as a test substance, was warmed to 43° C., subsequently S. thermophilus OLS3059 strain was inoculated as a starter in an amount of 1% (vol/wt), and the fermentation was started at 43° C. The pH of the fermentation liquid was measured over time. […]
The fermentation promoting effect on S. thermophilus was examined by the same method as described in Example 2, except that mixtures of adenosine and guanosine in different mixing ratios or mixtures of inosine and guanosine in different mixing ratios were used as test substances.

[2] = system: Lactobacillus gasseri OLL2716; test: Fermentation promoting effect in UHT sterilized milk, pH over time; details: adenylic acid 0.05 mmol/kg or 1:1 mixture 0.025% (wt/wt); UHT sterilized milk with 0.2% casein-hydrolyzed peptide, 43° C.
Experimental: as §1
(§2) The pH of the fermentation liquid was measured over time. A decrease in the pH in the lactic acid bacteria culture medium and the fermentation liquid indicates an increase in the amount of lactic acid production associated with the lactic acid bacterial fermentation and is used as an indicator of the progress degree of the lactic acid bacterial fermentation.
(§3) Starters (bacterial suspensions) were prepared from the respective bacterial strains by the same method as described in Example 1. The starter was inoculated in an inoculation amount of 1% (vol/wt). Except for these points, the fermentation promoting effect was evaluated in the same manner as in Example 1.
(§4) The preparation method and the inoculation amount (%) of the starter are as described in Example 1. Except for these points, the fermentation promoting effect was evaluated in the same manner as in Example 1.

[3] = system: Lactobacillus helveticus OLL1482; test: as above; details: adenylic acid 0.05 mmol/kg or 1:1 mixture 0.025% (wt/wt); UHT sterilized milk with 0.2% casein-hydrolyzed peptide, 43° C.
Experimental: as §1, §2, §3, §4

[4] = system: Lactobacillus delbrueckii subsp. bulgaricus OLL1073R-1; test: as above; details: adenylic acid 0.05 mmol/kg or 1:1 mixture 0.025% (wt/wt); UHT sterilized milk with 0.2% casein-hydrolyzed peptide, 43° C.
Experimental: as §1, §2, §3, §4

[5] = system: Leuconostoc lactis OLS5167; test: as above; details: adenylic acid 0.05 mmol/kg or 1:1 mixture 0.025% (wt/wt); UHT sterilized milk with 0.2% casein-hydrolyzed peptide, 43° C.
Experimental: as §1, §2, §3, §4

[6] = system: Lactococcus lactis subsp. lactis OLS3445; test: as above; details: adenylic acid 0.05 mmol/kg or 1:1 mixture 0.025% (wt/wt); UHT sterilized milk with 0.2% casein-hydrolyzed peptide, 43° C.
Experimental: as §1, §2, §3, §4

[7] = system: Lactobacillus acidophilus OLL1836; test: Fermentation promoting effect in UHT sterilized milk with casein-hydrolyzed peptide, pH over time; details: adenylic acid 0.05 mmol/kg or 1:1 mixture 0.025% (wt/wt); UHT sterilized milk with 0.2% casein-hydrolyzed peptide, 43° C.
[8] = system: Lactobacillus johnsonii OLL2725; test: as above; details: adenylic acid 0.05 mmol/kg or 1:1 mixture 0.025% (wt/wt); UHT sterilized milk with 0.2% casein-hydrolyzed peptide, 43° C.

Compound	fermentation promoting effect (pH of the fermentation liquid over time vs control) [1]	also measured
Nc1ncnc2c1ncn2[C@@H]1O[C@H](CO)[C@@H](O)[C@H]1O [adenosine]	notable fermentation promoting effects	fermentation promoting effect (pH over time) of mixtures with guanosine in different mixing ratios [1]: exhibit the fermentation promoting effect in a concentration-dependent manner
Nc1nc2c(ncn2[C@H]2C[C@H](O)[C@@H](CO)O2)c(=O)[nH]1 [deoxyguanosine]	did not exhibit the fermentation promoting effects	–
Nc1ncnc2c1ncn2[C@H]1C[C@H](O)[C@@H](CO)O1 [deoxyadenosine]	notable fermentation promoting effects	–
Nc1ncnc2nc[nH]c12 [adenine]	notable fermentation promoting effects	–
O=c1ccn([C@@H]2O[C@H](CO)[C@@H](O)[C@H]2O)c(=O)[nH]1 [uridine]	did not exhibit the fermentation promoting effects	–
O=c1[nH]c(=O)c2[nH]c(=O)[nH]c2[nH]1 [uric acid]	did not exhibit the fermentation promoting effects	–
Nc1ccn([C@@H]2O[C@H](CO)[C@@H](O)[C@H]2O)c(=O)n1 [cytidine]	did not exhibit the fermentation promoting effects	–
Nc1nc2nc[nH]c2c(=O)[nH]1 [guanine]	did not exhibit the fermentation promoting effects	–
O=c1[nH]cnc2nc[nH]c12 [hypoxanthine]	notable fermentation promoting effects	–
adenylic acid [AMP]	notable fermentation promoting effects	fermentation promoting effect (pH over time vs control) [2]: shown in all the strains tested; fermentation promoting effect (pH over time vs control) [3]: shown in all the strains tested; fermentation promoting effect (pH over time vs control) [4]: shown in all the strains tested; fermentation promoting effect (pH over time vs control) [5]: shown in all the strains tested; fermentation promoting effect (pH over time vs control) [6]: shown in all the strains tested; fermentation promoting effect (pH over time vs control) [7]: shown in all the strains tested; fermentation promoting effect (pH over time vs control) [8]: shown in all the strains tested
OC[C@H]1O[C@@H](n2cnc3c(O)ncnc32)C[C@@H]1O [deoxyinosine]	notable fermentation promoting effects	–
O=c1[nH]c(=O)c2[nH]cnc2[nH]1 [xanthine]	did not exhibit the fermentation promoting effects	–
Nc1nc2c(ncn2[C@@H]2O[C@H](CO)[C@@H](O)[C@H]2O)c(=O)[nH]1 [guanosine]	did not exhibit the fermentation promoting effects	fermentation promoting effect (pH over time) of mixtures with guanosine in different mixing ratios [1]: does not exhibit the fermentation promoting effect
O=c1cc[nH]c(=O)[nH]1 [uracil]	did not exhibit the fermentation promoting effects	–
OC[C@H]1O[C@@H](n2cnc3c(O)ncnc32)[C@H](O)[C@@H]1O [inosine]	notable fermentation promoting effects	fermentation promoting effect (pH over time) of mixtures with guanosine in different mixing ratios [1]: exhibit the fermentation promoting effect in a concentration-dependent manner
Nc1cc[nH]c(=O)n1 [cytosine]	did not exhibit the fermentation promoting effects	–
Cc1cn([C@H]2C[C@H](O)[C@@H](CO)O2)c(=O)[nH]c1=O [thymidine]	did not exhibit the fermentation promoting effects	–
Cc1c[nH]c(=O)[nH]c1=O [thymine]	did not exhibit the fermentation promoting effects	–
